From US20120258938A1, “Enzymatic Production or Chemical Synthesis and Uses for 5,7-Dienes and UVB Conversion Products Thereof” (priority 2008, published 2012) come the findings set out here.

A word on the Km: it is the substrate concentration at which the rate is half of its maximum.

In one data set the test system is CYP24. The experiment in a line: Real-time RT PCR CYP24 mRNA in HaCaT keratinocytes. The data set is classed as cell-based, human. The protocol: RNA was extracted as above. Reverse transcription was performed with Transcriptor First Strand cDNA Synthesis Kit (Roche, Nutley, N.J.). The primers (right: 5′-GCA GCT CGA CTG GAG TGA C-3′ (SEQ ID NO: 1) and left: 5′-CATCATGGCCATCAAAACAAT-3′(SEQ ID NO: 2)) and probe (cat. no. 04689135001) were designed with Universal Probe Library (Roche, Nutley, N.J.). Real-time PCR was performed using TaqMan PCR Master Mix at 50° C. for 2 min, 95° C. for 10 min and then 50 cycles (95° C. for 15 sec, 60° C. for 1 min). The data was collected on a Roche Light Cycler 480. The amounts of CYP24 were normalized using cyclophilin D as a housekeeping gene with comparative CT method.
The RNA from HaCaT keratinocytes treated with 1α,20-dihydroxycholecalciferol was isolated and RT PCR run as described in Example 1.

Data set [1] concerns HaCaT keratinocytes. Kind of data set: [3H]-thymidine DNA synthesis in HaCaT keratinocytes. Type of data set: cell-based, human. The protocol:
HaCaT keratinocytes were plated in 96-well plates at the density of 10,000 cells/well in DMEM (Cellgro, Herndon Va.) containing 5% charcoal treated fetal bovine serum (Hyclone, Logan, Utah), 1% antibiotic solution (PSA, Sigma, St. Louis, […].). Next day, media were changed and vehicle (ethanol) or secosteroids added. Cells were incubated with compounds for 48 hours. [^3H]-thymidine (Amersham Biosciences, Picataway, N.Y.) was added to the final concentration of 1 μCi/mL medium for last 12 hours of incubation. Media were then discarded, cells detached with trypsin and harvested on a glass fiber filter (Packard, Meriden, Calif.). Radioactivity was measured with a beta counter (Direct Beta-Counter Matrix 9600; Packard).
(§1) To measure DNA synthesis, keratinocytes, melanoma or prostate cancer cells were plated in 96-well plates. After overnight incubation tested compounds were added to the medium to achieve final concentrations 10^−7-10^−10 [M]. 100 μl of medium per well containing vitamin D3 compound was added to the cells. After 36 hours of incubation [3H]-thymidine (specific activity 88.0 Ci/mmol; Amersham Biosciences, Picataway, N.Y., USA) was added at 1 μCi/mL medium. After 12 hours, media were discarded, cells detached with trypsin and harvested on a glass fiber filter (Packard, Meriden, Calif., USA). 3H-radioactivity was measured with a beta counter (Direct Beta-Counter Matrix 9600; Packard).
HaCaT keratinocytes were plated out in 24-well plates, 50,000 cells/well. […] After 4 h media were discarded, cells washed with cold phosphate-buffered saline and incubated in 10% trichloroacetic acid for 30 min. Cells were washed again with phosphate-buffered saline, 100 μl 1.0 M NaOH was added to each well and plates incubated for 30 min at 30° C. The supernatant was collected and the ^3H-radioactivity measured by scintillation counting using a Direct Beta-Counter Matrix 9600 (Packard). The [^3H]-thymidine incorporation into DNA was measured separately for each well and the results entered into the calculation as the mean of 6 wells for each condition in a series of six experiments (n=36). Data were analyzed with GraphPad Prizm Version 4.0 (GraphPad Software Inc., San Diego, Calif., USA) using t tests. Differences were considered significant when p<0.05.

Data set [2] concerns HaCaT keratinocytes. The data set is classed as cell-based, human. How it is done: The cells were seeded in 96-well plate in F10 medium. Following 48 to 96 h incubation cells were fixed with 10% trichloroacetic acid, washed and then incubated with 0.04% sulforhodamine B (in 1% acetic acid) for 30 min. Following second wash with 1% acetic acid, dye incorporated into the cells was solubilized in 10 mM Tris by shaking for 30 min and the absorbance was measured at 570 nm.
Cells are treated with the test compound, washed, fixed and stained with the Sulphorhodamine B dye (SRB). The incorporated dye is then liberated from the cells in a tris-base solution. An increase or decrease in the number of cells (total biomass) results in a concomitant change in the amount of dye incorporated by the cells in the culture. Cells were seeded in growth medium at 10,000 per well in 96-well plates. After 12 h of culture the medium was changed to 5% charcoal-treated serum and cells cultured for a further 47 h with serial dilutions of 1α,20-dihydroxycholecalciferol (diluted as for as for thymidine incorporation). […] was then added to a final concentration of 20% from a 50% stock and cells incubated for 1 h. Cells were stained with SRB 0.4% (Sigma), washed with 1% acetic acid and dried. Trsi-HCl was added and the absorbance measured at 565 nm. The absorbance of blank medium only, was also measured also at 690 nm.

The target of the next data set is human CYP27B1 (Homo sapiens, UniProt O15528). Kind of data set: Metabolism by CYP27B1 in phospholipid vesicles. Type of data set: in vitro ADME. To be noted: up to 10 min. How it is done:
(§2) Adrenodoxin was added last to initiate the reaction.
(§3) Products and remaining substrate were extracted with dichloromethane, and measured by reverse phase HPLC as described before (12, 13b).

A further data set has as its target bovine CYP11A1 (Bos taurus, UniProt P00189). Kind of data set: Metabolism by CYP11A1 (P450scc) in phospholipid vesicles. Type of data set: in vitro ADME. To be noted: first 2 min of incubation. The protocol:
as §2, §3

The test system of data set [3] is neonatal human epidermal keratinocytes (HEKn). Kind of data set: [3H]-thymidine proliferation assay in HEKn. Type of data set: cell-based. To be noted: 24 h, 0.1 nM. The protocol: Neonatal human epidermal keratinocytes (HEKn) were isolated form neonatal foreskin of African-American donors and grown in HKM (Lonza) medium supplemented with HKGF (Lonza) as described previously (8a,c). For the cell proliferation assay the cells from a third passage were seeded into 24-well plates (TPP, Switzerland) and grown until reaching ˜80% confluence. Secosteroids were dissolved in ethanol and then diluted in keratinocyte medium containing 0.1% BSA (Sigma). Cells were incubated for 24 h then 1 μCi/ml [^3H]-thymidine (Moravek Biochemicals Inc., Brea, Calif.) was added and cells were incubated for further 4 h. Excess of unbound thymidine was removed by washing cells with PBS. Cells were precipitated with 10% trichloroacetic acid (TCA) (Sigma) and then the precipitate dissolved with 1N NaOH. The solution was collected in vials and thymidine incorporation was determined in liquid scintillation counter (Beckman LS 6000, Santa Clara, Calif.).

Data set [4] deals with involucrin. The experiment in a line: Involucrin protein fluorescence, normal human epidermal keratinocytes. As to conditions: 10^−7 M. Type of data set: cell-based. How it is done:
Cells were seeded in 6-well Lab-Tek II chamber slides (Nalge Nunc, Inc., Naperville, Ill.). Cells were pre-incubated in Epilife medium with HKGS overnight and then stimulated with 20-hydroxycholecalciferol in Epilife medium with HKGS for 24 hours and then fixed with 4% paraformaldehyde in PBS for 10 minutes. The cells were permeabilized with 0.2% Triton-X 100 in PBS for 5 minutes and blocked with 1% bovine serum albumine (BSA; in PBS) for 30 minutes. The cells were incubated consecutively with mouse anti-human involucrin antibody (Novocastra, Newcastle upon Tyne, UK) for 3 hours, anti-mouse-fluorescein isothiocyanate (FITC) conjugate (Novocastra, Newcastle upon Tyne, UK) for 1 hour in buffer containing 1% BSA in PBS. The slides were extensively washed with PBS between stainings and mounted with Vectashield mounting medium with propidium iodide (Vector Laboratories, Burlingame, Calif.). Slides not incubated with primary antibody were used as background controls. Slides were viewed with NIKON Eclipse TE300 microscope (Melville, N.Y.).
Data are shown as mean±SD (n=10-20). **, p<0.01. ***, p<0.001.

For data set [5], the system named is immortalized normal epidermal melanocytes (PIG1 line). Kind of data set: Proliferation of PIG1 melanocytes. The data set is classed as cell-based. To be noted: PIG1, 72 h.
In data set [6] the test system is SKMEL-188 human melanoma cells. Kind of data set: Proliferation (DNA synthesis) of SKMEL-188. To be noted: SKMEL-188, 72 h. The data set is classed as cell-based. How it is done: as §1
(§4) HaCaT keratinocytes were an incubated for 48 h (FIG. 48A) or 72 h (FIG. 48B) in the presence of graded concentrations of 20(OH)D2 and/or 1,25(OH)2D3. […] Data are shown as mean±SD (n 3); *, p<0.05; **, p<0.01.

In data set [7] the test system is neonatal epidermal melanocytes. The experiment in a line: Proliferation of neonatal epidermal melanocytes. As to conditions: 48 hours. Type of data set: cell-based.
For data set [8], the system named is involucrin. The experiment in a line: Real-time RT PCR involucrin mRNA, normal human epidermal keratinocytes. Type of data set: cell-based. As to conditions: 10^−7 M, time dependant. How it is done: RNA was extracted using an Absolutely RNA RT-PCR Miniprep Kit (Stratagene, La Jolla, Calif.). Real time PCR and reverse transcription products were purchased from Applied Biosystems, Foster City, Calif. Reverse transcription was performed using Taqman® Reverse Transcription Reagents. The following PCR products were used: cytokeratin 14: Hs00265033_m1, involucrin: Hs00846307_s1, CYP27A1: Hs00168003_ml, CYP27B1: Hs00168017_ml, 18SrRNA: Hs99999901_s1. The reaction was performed with Taqman® Universal PCR Master Mix; data were collected on an ABI Prism 7700 and analyzed on Sequence Detector 1.9.1. Specific gene amounts were related to 18SrRNA by comparative CT method.

For another data set, the system named is human melanoma cells. The experiment in a line: Melanoma colony formation (crystal violet, 7 days). Type of data set: cell-based. As to conditions: colonies over 0.2 mm and 0.5 mm. The source says:
Inhibitory effects of 20(OH)D2 (FIGS. 47A-47B) in comparison to 1,25(OH)2D3 (FIGS. 47C-47D) on the ability of human melanoma cells to form colonies was examined.

The test system of data set [9] is AbC1 hamster melanoma cells. The experiment in a line: Proliferation (DNA synthesis) of AbC1. The data set is classed as cell-based. To be noted: AbC1, 72 h. The protocol: as §1, §4
Substrate in data set [10]: C=C1CC[C@H](O)C/C1=C/C=C1\CCC[C@]2(C)[C@@H]([C@H](C)CCCC(C)C)CC[C@@H]12
The experiment in a line: cells, lysate or membranes named. As to conditions: other: cyclodextrin; 37.0 °C.

Sequence of bovine CYP11A1 (P00189 40-520): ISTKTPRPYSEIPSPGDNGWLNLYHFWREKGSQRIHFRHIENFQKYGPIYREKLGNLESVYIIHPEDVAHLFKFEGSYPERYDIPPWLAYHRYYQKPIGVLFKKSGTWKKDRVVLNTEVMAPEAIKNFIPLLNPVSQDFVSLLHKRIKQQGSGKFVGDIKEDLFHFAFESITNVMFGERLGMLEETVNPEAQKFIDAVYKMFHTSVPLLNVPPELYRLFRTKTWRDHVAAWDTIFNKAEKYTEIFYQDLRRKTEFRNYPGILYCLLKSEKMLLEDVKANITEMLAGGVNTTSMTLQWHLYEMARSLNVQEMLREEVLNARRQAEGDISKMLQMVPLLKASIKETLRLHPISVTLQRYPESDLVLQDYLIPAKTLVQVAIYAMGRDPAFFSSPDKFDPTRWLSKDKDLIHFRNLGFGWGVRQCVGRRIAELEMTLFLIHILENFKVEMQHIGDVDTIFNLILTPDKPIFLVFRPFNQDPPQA
Sequence of human CYP27B1 (O15528 whole entry): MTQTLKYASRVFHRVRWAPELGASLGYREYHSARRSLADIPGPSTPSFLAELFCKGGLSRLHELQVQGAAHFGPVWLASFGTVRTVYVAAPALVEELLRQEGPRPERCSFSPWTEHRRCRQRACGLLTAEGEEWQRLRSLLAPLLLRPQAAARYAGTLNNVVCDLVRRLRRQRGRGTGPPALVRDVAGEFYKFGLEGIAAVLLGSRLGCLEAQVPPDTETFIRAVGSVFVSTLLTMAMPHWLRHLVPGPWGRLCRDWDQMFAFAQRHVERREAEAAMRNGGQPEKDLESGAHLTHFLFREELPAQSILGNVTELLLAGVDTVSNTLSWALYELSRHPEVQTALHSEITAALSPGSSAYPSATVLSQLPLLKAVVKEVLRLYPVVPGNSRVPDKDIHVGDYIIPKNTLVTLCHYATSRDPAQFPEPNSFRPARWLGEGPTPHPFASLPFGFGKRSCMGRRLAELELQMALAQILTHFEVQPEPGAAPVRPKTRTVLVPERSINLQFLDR

For the molecule `C=C1C(=CC=C2CCCC3(C)C2CCC3C(C)(O)CCCC(C)C)CC(O)CC1O` (stereo not drawn) [1α,20-dihydroxycholecalciferol, (5Z,7E)-9,10-secocholesta-5,7,10(19)-triene-1α,3β,20-triol], the “CYP24 mRNA level” value is “Modest stimulation” in the data set on CYP24 (0.1 μM, 6 h); “the effect was lost by 24 h” in the data set on CYP24 (0.1 μM, 24 h); “markedly increased the Cyp 24 mRNA level” in the data set with CYP24 (1 μM, 6 h and 24 h). Besides, the “decrease in DNA synthesis” value worked out at 30% in the data set on HaCaT keratinocytes [1] (0.1 nM) and 50% in the data set on HaCaT keratinocytes [1] (10 nM). The “keratinocyte proliferation compared with 1α,25-dihydroxycholecalciferol” value in the data set with HaCaT keratinocytes [1] (HaCaT, 48 h) is “inhibit keratinocyte proliferation more potently than the control compound”. For the same molecule, in the data set on HaCaT keratinocytes [2], the “number of viable cells (sulforhodamine B)” value is “caused a decrease in number of viable cells”.

As to `C=C1CCC(O)CC1=CC=C1CCCC2(C)C1CCC2C(C)(O)CCCC(C)C` (stereo not drawn) [20R(OH)D3, (5Z,7E)-9,10-secocholesta-5,7,10(19)-triene-3β,20R-diol], the “metabolism by CYP27B1” value at human CYP27B1 is given as “metabolized to a single product at comparable initial rates”. The molecule further had a substrate consumed on bovine CYP11A1 of 58%. Moreover, in data set [3], the “thymidine incorporation into DNA” value was “slightly stimulated thymidine incorporation into DNA”.

As for “(5Z,7E,22E)-9,10-secoergosta-5,7,9(10),22-tetraene-3β,20-diol [20(OH)D2]”, the involucrin protein expression result in the data set on involucrin [4] is “increased expression of involucrin protein”. The proliferation entry in data set [5], in data set [6], in data set [7] and in [9] was “Dose dependent inhibition of the proliferation” each time. For the same molecule, in the data set with involucrin [8], the involucrin gene expression entry is on record as “induced time dependant involucrin gene expression”. Moreover, the “melanoma cell colony formation compared with 1,25(OH)2D3” value in the data set on human melanoma cells is recorded as “Inhibits Melanoma Cell Colony Formation Better than 1.25 OH 2D3”.

B1: CYP27A1 (Homo sapiens) (protein)
chain: ALPSDKATGAPGAGPGVRRRQRSLEEIPRLGQLRFFFQLFVQGYALQLHQLQVLYKAKYGPMWMSYLGPQMHVNLASAPLLEQVMRQEGKYPVRNDMELWKEHRDQHDLTYGPFTTEGHHWYQLRQALNQRLLKPAEAALYTDAFNEVIDDFMTRLDQLRAESASGNQVSDMAQLFYYFALEAICYILFEKRIGCLQRSIPEDTVTFVRSIGLMFQNSLYATFLPKWTRPVLPFWKRYLDGWNAIFSFGKKLIDEKLEDMEAQLQAAGPDGIQVSGYLHFLLASGQLSPREAMGSLPELLMAGVDTTSNTLTWALYHLSKDPEIQEALHEEVVGVVPAGQVPQHKDFAHMPLLKAVLKETLRLYPVVPTNSRIIEKEIEVDGFLFPKNTQFVFCHYVVSRDPTAFSEPESFQPHRWLRNSQPATPRIQHPFGSVPFGYGVRACLGRRIAELEMQLLLARLIQKYKVVLAPETGELKSVARIVLVPNKKVGLQFLQRQC
B1: in [10], the Km came out at 10.7 ± 3.1 µM.
